How the values were obtained:
Carbonic anhydrase 1 [1] = molecular target: T1, Carbonic anhydrase 1 (Homo sapiens, UniProt P00915); assay: Inhibition of esterase-activity of CA1 from human erythrocytes by spectrophotometry
Carbonic anhydrase 2 [2] = molecular target: T2, Carbonic anhydrase 2 (Homo sapiens, UniProt P00918); assay: Inhibition of esterase-activity of human erythrocytes CA2 by spectrophotometry
Carbonic anhydrase 1 [3] = molecular target: T1, Carbonic anhydrase 1; assay: Inhibition of CA1 from human erythrocytes by Lineweaver-Burke analysis
Carbonic anhydrase 2 [4] = molecular target: T2, Carbonic anhydrase 2; assay: Inhibition of human erythrocytes CA2 by Lineweaver-Burke analysis
Carbonic anhydrase 1 [5] = molecular target: T1, Carbonic anhydrase 1; assay: Inhibition of hydratase-activity of CA1 from human erythrocytes by CO2-hydration method
Carbonic anhydrase 2 [6] = molecular target: T2, Carbonic anhydrase 2; assay: Inhibition of hydratase-activity of human erythrocytes CA2 by CO2-hydration method

T1 sequence (P00915 whole entry): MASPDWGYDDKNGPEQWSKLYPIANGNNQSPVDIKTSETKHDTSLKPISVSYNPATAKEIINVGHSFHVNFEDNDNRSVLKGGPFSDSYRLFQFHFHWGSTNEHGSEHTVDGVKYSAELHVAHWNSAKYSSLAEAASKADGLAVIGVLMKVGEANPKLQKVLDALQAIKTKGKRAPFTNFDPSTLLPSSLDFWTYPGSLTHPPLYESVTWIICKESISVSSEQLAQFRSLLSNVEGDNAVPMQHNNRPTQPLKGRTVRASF

IC50 (Carbonic anhydrase 1 [1]; read-out: IC50) [nM] | IC50 (Carbonic anhydrase 2 [2]; read-out: IC50) [nM] | IC50 (Carbonic anhydrase 1 [3]; read-out: IC50) [nM] | IC50 (Carbonic anhydrase 2 [4]; read-out: IC50) [nM] | IC50 (Carbonic anhydrase 1 [5]; read-out: IC50) [nM] | IC50 (Carbonic anhydrase 2 [6]; read-out: IC50) [nM] | IC50 (Carbonic anhydrase 1 [1]) | IC50 (Carbonic anhydrase 2 [2]) | IC50 (Carbonic anhydrase 1 [3]) | IC50 (Carbonic anhydrase 2 [4]) | IC50 (Carbonic anhydrase 1 [5]) | IC50 (Carbonic anhydrase 2 [6]) | Compound
3200 | 18000 | 7700 | 22000 | 430 | 380 | – | – | – | – | – | – | NS(=O)(=O)c1cc(C(=O)O)c(Cl)cc1Cl
– | – | – | – | – | – | Not Active | Not Active | Not Active | Not Active | Not Active | Not Active | NCc1ccccn1
320 | 290 | 250 | 220 | 260 | 300 | – | – | – | – | – | – | NCc1ccccn1.NS(=O)(=O)c1cc(C(=O)O)c(Cl)cc1Cl

Reference: ChEMBL document CHEMBL1157726, “Synthesis, characterization and antiglaucoma activity of a novel proton transfer compound and a mixed-ligand Zn(II) complex” (Bioorg Med Chem, 2010)
